From article PMC8472793 (Microorganisms, 2021) come the findings set out here.

The target of assay [1] is T1, Pro1 (γ-glutamyl kinase, GK) (Saccharomyces cerevisiae, UniProt P32264).
T1 sequence (P32264 1-428): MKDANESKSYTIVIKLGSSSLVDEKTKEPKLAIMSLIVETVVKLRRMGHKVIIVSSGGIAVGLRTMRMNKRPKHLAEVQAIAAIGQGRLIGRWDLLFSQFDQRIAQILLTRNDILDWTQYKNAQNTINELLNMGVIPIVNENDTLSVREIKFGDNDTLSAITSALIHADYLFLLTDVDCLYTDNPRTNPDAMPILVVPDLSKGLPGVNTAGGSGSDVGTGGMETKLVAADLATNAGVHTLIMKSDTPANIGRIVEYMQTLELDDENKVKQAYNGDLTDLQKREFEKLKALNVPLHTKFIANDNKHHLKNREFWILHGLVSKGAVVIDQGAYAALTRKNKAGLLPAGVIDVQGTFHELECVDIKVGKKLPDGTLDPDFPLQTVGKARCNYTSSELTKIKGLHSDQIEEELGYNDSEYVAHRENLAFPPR
Description: PK/LDH-coupled ADP production, NADH oxidation at […] nm. It counts as biochemical. To be noted: 10 mM MgCl2, 100 mM HEPES-NaOH pH 7.4, 30 °C, no proline.

For assay [2], the target named is Pro1 (γ-glutamyl kinase, GK) (Saccharomyces cerevisiae, UniProt P32264, D143A). Briefly: biochemical. To be noted: read-out: relative activity at 500 mM proline.
The target in assay [3] is Pro1 (γ-glutamyl kinase, GK) (Saccharomyces cerevisiae, UniProt P32264, I150T). Description: biochemical. To be noted: read-out: relative activity at 500 mM proline.
The target of assay [4] is Pro1 (γ-glutamyl kinase, GK) (Saccharomyces cerevisiae, UniProt P32264, Q79H). Briefly: biochemical. To be noted: read-out: relative activity at 500 mM proline.
Sequence of Pro1 (γ-glutamyl kinase, GK) (Saccharomyces cerevisiae, UniProt P32264, Q79H) (P32264 whole entry Q79H): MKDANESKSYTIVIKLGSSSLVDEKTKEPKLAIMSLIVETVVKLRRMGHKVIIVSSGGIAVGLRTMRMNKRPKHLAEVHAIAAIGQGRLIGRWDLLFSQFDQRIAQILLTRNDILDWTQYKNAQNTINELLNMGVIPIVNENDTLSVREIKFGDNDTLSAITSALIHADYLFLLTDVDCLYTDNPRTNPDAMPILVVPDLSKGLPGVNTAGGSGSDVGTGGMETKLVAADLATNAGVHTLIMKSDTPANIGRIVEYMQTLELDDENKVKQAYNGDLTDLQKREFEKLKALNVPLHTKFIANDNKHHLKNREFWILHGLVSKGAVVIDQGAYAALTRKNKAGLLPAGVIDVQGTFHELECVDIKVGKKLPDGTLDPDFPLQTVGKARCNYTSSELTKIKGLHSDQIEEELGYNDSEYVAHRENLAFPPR

Sequence of Pro1 (γ-glutamyl kinase, GK) (Saccharomyces cerevisiae, UniProt P32264, D143A) (P32264 whole entry D143A): as the sequence (P32264 whole entry Q79H) above, with H79Q, D143A counted along it
Sequence of Pro1 (γ-glutamyl kinase, GK) (Saccharomyces cerevisiae, UniProt P32264, I150T) (P32264 whole entry I150T): as the sequence (P32264 whole entry Q79H) above, with H79Q, I150T counted along it

Take `Nc1ncnc2c1ncn2[C@@H]1O[C@H](COP(=O)(O)OP(=O)(O)OP(=O)(O)O)[C@@H](O)[C@H]1O` [ATP]: in assay [1] (400 mM sodium glutamate, ATP 5 mM), the “PK/LDH-coupled ADP production, NADH oxidation at 340 nm” value is given as “GK activity was measured by the production of ADP in an enzyme-coupled system”.
As to `O=C(O)[C@@H]1CCCN1` [proline], the activity at 500000 µM is approximately 95% in assay [2], 50% in assay [3] and approximately 96% in assay [4].
As for `N[C@@H](CCC(=O)O)C(=O)O` [sodium glutamate], in assay [1] (5 mM ATP, glutamate 400 mM), the “PK/LDH-coupled ADP production, NADH oxidation at 340 nm” value is reported as “sodium glutamate was added to initiate the enzymatic reaction”.
